Assay [1] concerns the target full-length enzyme from P. falciparum (PfDHODH). The arrangement: method as in PMID 7909690. The settings on record: after solubilization in Triton X-100; cited from earlier work.
The target of assay [2] is truncated enzyme (PfDHODH). The arrangement: method as in PMID 16510978. The following applies: assayed under similar conditions; cited from earlier work.
A further assay addresses human enzyme (DHODH). The arrangement: method as in PMID 16510978. The following applies: cited from earlier work.
The target of another assay is s-RrDHODH. The arrangement: method as in PMID 16510978. The settings on record: read-out: Ki, s-RrDHODH from rat; cited from earlier work.
Assay [3] concerns the target T1, s-PfDHODH (Plasmodium falciparum, UniProt Q08210).
T1 sequence (Q08210 158-569 limits assumed): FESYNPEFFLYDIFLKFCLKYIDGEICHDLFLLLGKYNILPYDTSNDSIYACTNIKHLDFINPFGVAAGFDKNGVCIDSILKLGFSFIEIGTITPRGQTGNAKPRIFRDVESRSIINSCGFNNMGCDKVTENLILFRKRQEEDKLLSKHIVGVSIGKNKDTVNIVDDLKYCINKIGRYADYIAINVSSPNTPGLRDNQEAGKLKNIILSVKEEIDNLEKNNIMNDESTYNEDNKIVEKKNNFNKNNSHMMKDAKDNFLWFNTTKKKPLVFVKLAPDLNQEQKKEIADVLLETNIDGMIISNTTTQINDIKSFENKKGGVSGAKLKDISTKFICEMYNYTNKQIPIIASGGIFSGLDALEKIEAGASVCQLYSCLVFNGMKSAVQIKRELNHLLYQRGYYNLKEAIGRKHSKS
Description: Inhibition of s-PfDHODH in vitro (Tres Cantos laboratory). The settings on record: read-out: s-PfDHODH in vitro IC50; assayed at the Tres Cantos laboratory.
Description: The literature data set used to build our PfDHODH inhibition models was based on in vitro assays carried out using the truncated, soluble form of the enzyme introduced by Baldwin et al. [10].

A further assay has as its system intact PfDHODH. Description: Rescue from growth inhibition by transfection with ScDHODH (Dd2attB_yeastDHODH vs parental Dd2attB). The settings on record: P. falciparum in blood culture; Tres Cantos, previously unpublished. In kind it is cell-based, Plasmodium falciparum. From the text:
Fortunately, there is a way to address this question, though the method is somewhat indirect. P. falciparum parasites engineered to express DHODH from the yeast Saccharamyces cerevisiae (ScDHODH) use fumarate as an oxidizing agent instead of ubiquinone, so their growth is not inhibited by (i.e., they are “rescued from”) inhibitors that compete with ubiquinone. Painter et al. used this technique to validate PfDHODH as an antimalarial drug target.
Unbeknownst to the Simulations Plus and U.C. Riverside groups, the Tres Cantos group had already tested several 2-aminoquinolone actives from the GSK antimalarial data set for rescue by ScDHODH transfection. […] An additional sixteen 2-amino-4-quinolones having different bridging groups were also assayed; three of these were clearly subject to rescue, whereas three yielded ambiguous results.
The Dd2 cell line containing yeast dihydroorotate dehydrogenase (DHODH) and its parental strain were cultured as described in 4.3.1 and potency of compounds determined following procedures outlined in 4.3.2. The ScURA1 gene from Saccharomyces cerevisiae was amplified from genomic DNA and cloned into the pLN-14 vector. The P. falciparum Dd2attB strain was transfected by electroporation, and stable transfectants were selected with blasticidin. Both the Dd2attB_yeastDHODH strain and its parental strain, Dd2attB, were used in these assays to determine if parasite growth inhibition was mediated by inhibition of PfDHODH following rationale previously described in Painter et al..

The test system of assay [4] is P. falciparum 3D7 (chloroquine-susceptible). The experiment in a line: XC50 in asynchronous blood culture, [3H]hypoxanthine incorporation, strain 3D7. The assay is classed as cell-based. The following applies: Plasmodium falciparum, concentration required to reduce parasite growth rate by 50%. On the procedure:
(§1) Antimalarial activity in blood culture was determined as previously described at the University of California, Riverside, under conditions essentially identical to those used by GSK [19].
(§2) P. falciparum 3D7A and Dd2 strains used in this study were obtained from the Malaria Research and Reference Reagent Resource Center (MR4). Parasites were grown in human erythrocytes (obtained from a transfusion blood bank in Madrid, Spain) with Albumax II medium as previously described. RPMI 1640 medium (Gibco) was supplemented with 0.5% Albumax II (Invitrogen), 2% D-sucrose (Sigma-Aldrich), 0.3% glutamine (Sigma-Aldrich), and 150 µM hypoxanthine (Sigma-Aldrich). Cultures were maintained at 37°C at an atmosphere of 5% O2, 5% CO2, and 90% N2.
(§3) Parasite growth inhibition assays and 50% inhibitory concentration (XC50) determinations were carried out by following standard methods using the [^3H]hypoxanthine incorporation assay. Briefly, cultures with 0.5% parasitemia and 2% hematocrit were incubated with the drug as described for 48 h. After this period, parasites were harvested and the amount of incorporated radiolabeled precursor was determined. Radioactivity was added 24 h before harvesting of the parasites.

For assay [5], the system named is P. falciparum Dd2 (chloroquine-resistant). Description: XC50 in asynchronous blood culture, [3H]hypoxanthine incorporation, strain Dd2. In kind it is cell-based, Plasmodium falciparum. The following applies: for IC50: Plasmodium falciparum, DD2, concentration required to reduce parasite growth rate by 50%, chloroquine-resistant strain, asynchronous blood culture; for Resistance ratio (±): ratio of XC50 between resistant (Dd2) and susceptible (3d7) strains. The procedure: as §1, §2, §3

Assay [6] addresses T1, s-PfDHODH. The arrangement: method as in earlier work. The following applies: literature data used to construct QSAR models; cited from earlier work.
The target in assay [7] is T1, s-PfDHODH. The experiment in a line: Literature inhibition data for soluble recombinant PfDHODH (s-PfDHODH), dodecylubiquinone as substrate. The assay is classed as biochemical. From the text: Data on PfDHODH inhibition were collected from the literature for a structurally diverse group of compounds. These included triazolopyrimidines, diphenylureas, and 2-cyano-3-hydroxy acrylanilides, among others. Quantitative data were not available for inhibition of the intact enzyme, which is bound to the mitochondrial membrane by its hydrophobic N-terminus in vivo [16]. […] The very low solubility of CoQ-10 limits its utility in vitro, so an artificial ubiquinone (dodecylubiquinone [DQ]) is usually used as substrate instead.
The IC50 data for these 89 compounds were converted to inhibition constants (Ki’s) by assuming competitive inhibition against DQ and applying the method described by Cheng and Prusoff. Two artificial neural network ensemble (ANNE) regression models were constructed (henceforth referred to as Model A and Model B) using ADMET Modeler™ module of ADMET Predictor® [18]. The models were built on distinct 20% hold-out test sets (see Supplementary Methods for details).

The mark [8] stands for this setting: converted from literature IC50 assuming competitive inhibition against DQ (Cheng and Prusoff), read-out: PfDHODH Ki.

Read-outs that look alike come from different tables or passages of the source.

Regarding `O=C1C(O)=C([C@H]2CC[C@H](c3ccc(Cl)cc3)CC2)C(=O)c2ccccc21` [Atovaquone], the Ki was 27 µM in assay [1], more than 500 µM in assay [2], approximately 2 µM on human enzyme (DHODH) and approximately 0.08 µM at s-RrDHODH.
On to `O=C(O)C(O)C(=O)O` [CID 44,537,350], for which the IC50 at s-PfDHODH [3] stood at 0.86 µM.
Turning to `O=c1cc(NCC2(CNCc3cn(Cc4ccccc4)c4ccccc34)CCCCC2)[nH]c2ccccc12` [CID 10300864], the “rescue of parasites from growth inhibition by ScDHODH transfection” value in the assay on intact PfDHODH is given as “rescued”.
On to `CCOc1c(CNCCCNc2cc(=O)c3ccccc3[nH]2)cc(Br)cc1OC` [CID 44373601], for which the “rescue of parasites from growth inhibition by ScDHODH transfection” value in the assay with intact PfDHODH is reported as “not rescued”.
Take `O=c1cc(NC[C@H]2CCC[C@@H]2NC2CCCc3c2[nH]c2ccccc32)[nH]c2ccccc12` (stereo partly shown) [CID 44533954]: the “rescue of parasites from growth inhibition by ScDHODH transfection” value with intact PfDHODH is “not rescued”.
Turning to `O=c1cc(NCCCNCc2sc(Br)nc2Br)[nH]c2ccccc12` [CID 44534653], in the assay on intact PfDHODH, the “rescue of parasites from growth inhibition by ScDHODH transfection” value is “rescued”.
Compound `COc1ccc2[nH]c(NCC3(CNC4CCNc5ccccc54)CCCC3)cc(=O)c2c1` (stereo not shown) [Compound 11c, 6-methoxy-2-(1-((1,2,3,4-tetrahydroquinolin-4-yl)aminomethyl)cyclopentyl)methylamino-1H-quinolin-4-one] displayed an IC50 in [4] of 0.37 µM. In addition, in [5], inhibition was half-maximal at 1.78 µM (IC50) and the “Resistance ratio (±)” value worked out at 4.8.
As for `Cn1cc(CNCC2(CNc3cc(=O)c4ccccc4[nH]3)CCCC2)n(C)c1=O` [Compound 12a, 2-(1-((1,3-dimethyl-2-oxo-imidazol-4-yl)methylaminomethyl)cyclopentyl)methylamino-1H-quinolin-4-one], in assay [4], the IC50 was 10 µM. Further, in assay [5], the IC50 came out at 46 µM and the “Resistance ratio (±)” value stood at 4.6.
On to `Cn1cc(CNCC2(CNc3cc(=O)c4cc(Cl)ccc4[nH]3)CCCC2)n(C)c1=O` [Compound 12b, 6-chloro-2-(1-((1,3-dimethyl-2-oxo-imidazol-4-yl)methylaminomethyl)cyclopentyl)methylamino-1H-quinolin-4-one], for which 1.61 µM corresponded to half-maximal inhibition in assay [4] (IC50). In [5], the 50% inhibitory concentration (IC50) stood at 6.4 µM and the “Resistance ratio (±)” value is reported as 3.9.
Turning to `C/C(O)=C(/C#N)C(=O)Nc1ccc(-c2cccc(Cl)c2Cl)cc1` [Compound D26], the IC50 on s-PfDHODH [6] is 27.2 µM. Besides, on s-PfDHODH [7] (setting [8]), the Ki was found to be 3.2 µM.
For `C/C(O)=C(/C#N)C(=O)Nc1ccc(-c2ccccc2Cl)cc1` [Compound D27], on s-PfDHODH [6], the IC50 was 47.4 µM. Besides, the Ki at s-PfDHODH [7] is 5.6 µM.
On to `C/C(O)=C(/C#N)C(=O)Nc1ccc(-c2ccccc2)cc1Cl` [Compound D28], for which the IC50 at s-PfDHODH [6] is 51.1 µM. Also, on s-PfDHODH [7] (setting [8]), the inhibition constant Ki was found to be 6 µM.
`CCOc1cccc(-c2ccc(NC(=O)/C(C#N)=C(\C)O)cc2)c1` [Compound D29]: the IC50 on s-PfDHODH [6] was 182 µM. Also, at s-PfDHODH [7], the Ki is 21.5 µM.
Regarding `Cc1cc(Nc2ccc(C(F)(F)F)c(F)c2)n2ncnc2n1` [Compound G47], the IC50 at s-PfDHODH [6] was 0.08 µM. In addition, on s-PfDHODH [7], the Ki was determined as 0.03 µM.

One may read the Ki as a measure of affinity in units of concentration, obtained from inhibition or displacement. What is called IC50 is the point on the concentration scale where inhibition reaches its midpoint.

The values above are taken from publication PMC7533260, “Design and tests of prospective property predictions for novel antimalarial 2-aminopropylaminoquinolones” (Journal of Computer-Aided Molecular Design, 2020).
